We go through 6 compounds from US20080300178A1, “Method For Treating Huntington's Disease by Inhibiting Dephosphorylation of Huntingtin at S421” (Insitut Curie, priority 2006, published 2008).

“Also recorded” adds a separate entry of the source.

Series [1] relates to endogenous huntingtin S421 phosphorylation. Put plainly: Phosphorylation of S421 in primary striatal neurons (Western blot). Type of series: cell-based. As to conditions: rat striatal neurons, 1 μM FK506. The protocol: (§1) Cell culture, transfection and drug treatments. Primary cultures of striatal neurons were prepared from E17 Sprague Dawley rats and transfected at 4 days in vitro by a modified calcium phosphate technique (Saudou et al., 1998). Mouse neuronal cells derived from wildtype huntingtin mice (neuronal cells, +/+) and from Hdh^Q109 knock-in mice (109Q/109Q) were cultured as previously described (Trettel et al., 2000) and transfected with Lipofectamine 2000 (Invitrogen, Breda, The Netherlands). When cotransfected (FIG. 3A), the ratio 480-17Q/Akt/CaNA-ΔCaM/CaNB was 1:0.5:1:1. Human HEK 293 cells were cultured in DMEM supplemented with 10% bovine calf serum (BCS) and were transfected by the calcium phosphate technique. SHSY-5Y cells and Jurkat T cells were grown in RPMI supplemented with 10% BCS. Jurkat T cells were transferred to tyrodes buffer (137 mM NaCl, 3 mM KCl, 20 mM Hepes, 2 mM MgCl2, 1 mM CaCl2, 5.6 mM glucose, 0.3 mg/ml BSA; 4×10^6 cells/ml) prior addition of FK506 (1 μM) and/or ionomycin (2.5 μM).
(§2) Western blot analysis. After transfection/incubation with drugs, cells were washed with ice cold phosphate-buffered saline prior to scraping and lysis. […] Quantification of the signal was performed by densitometric scanning of the film using ImageJ software.

In another series the test system is Parkinson's disease. As to conditions: cited from earlier work.
Series [2] relates to endogenous huntingtin S421 phosphorylation. Put plainly: Phosphorylation of endogenous huntingtin at S421 in Jurkat T cells (Western blot). Type of series: cell-based, human. As to conditions: ionomycin 2.5 μM. How it is done: as §1, §2
(A western blot detects proteins with antibodies after separation by electrophoresis.)

Series [3] has the same test system. The series is described as follows: Immunofluorescence of phospho-S421-huntingtin in SHSY-5Y cells transfected with wild-type CaNA/CaNB. Type of series: cell-based, human. As to conditions: 1 μM ionomycin, 15 min. How it is done: Immunofluorescence experiments. SHSY-5Y cells were grown on uncoated glass coverslips, transfected with wild-type CaNA/B for 24 hours and treated for 15 min with 1 μM ionomycin (Sigma) or left untreated. Cells were fixed with 4% paraformaldehyde-PHEM buffer for 20 min (in mM: PIPES, 120; HEPES, 50, EGTA, 20; Mg-acetate 4) and incubated with antiphospho-S421-huntingtin-763 (1:100) and anti-CaNA (1:200; Cat#C1956, Sigma) antibodies. Pictures were captured with a three-dimensional deconvolution imaging system as previously described (Gauthier et al., 2004). Mean fluorescence intensity of the phospho-S421 signal was next quantified using Metamorph software (Universal Imaging Corp, Princeton, N.J., USA). For each pair of cells (transfected/non transfected), signal from the transfected cell was standardized by giving a value of 100 to the non-transfected cell. Only non-mitotic cells of the same approximate size were considered. More than 30 cells in total were analyzed in two independent experiments.

In series [4] the test system is BDNF-containing vesicles transport. Put plainly: BDNF-containing vesicle transport in primary cortical neurons expressing FL-htt-75Q (videomicroscopy). Type of series: cell-based, rat. The following applies: IGF-1 treatment. The protocol: (§3) Videomicroscopy Experiments and Analyses. For videoexperiments rat primary cortical neurons, +/+, and 109Q/109Q cells established from Hdh^Q111 knock-in mouse were prepared, cultured and transfected as previously described (Gauthier et al., 2004; Humbert et al., 2002; Saudou et al., 1998; Trettel et al., 2000). In some cases, primary cultures of cortical neurons are electroporated with the rat neuron Nucleofector® kit according to the supplier's manual (Amaxa, Cologne). Forskolin ([…]; Sigma) and IBMX ([…]; Sigma) were added to the cultures 5 hours after transfection.
(§4) Videomicroscopy experiments were done two or four days after transfection. Cells were co-transfected with BDNF-eGFP and various constructs of htt or the corresponding empty vectors with a DNA ratio of 1:4. Live videomicroscopy was carried out using an imaging system previously detailed (Gauthier et al., 2004). Cells were grown on glass coverslip that was mounted in a Ludin chamber. The microscope and the chamber were kept at 37° C. (33° C. for knock-in cells). Stacks of 10-15 images with a Z-step of 0.3 μm were acquired with a 100× PlanApo N.A. 1.4 oil immersion objective coupled to a piezo device (PI). Images were collected in stream mode using a Cool Snap HQ camera (Ropper Scientific) set at 2×2 binning with an exposure time of 50 to 100 ms (frequency of 2). […]

Series [5] shares this test system. The series is described as follows: BDNF-containing vesicle transport in 109Q/109Q cells (videomicroscopy). The format is cell-based, mouse. The following applies: IGF-1 treatment. How it is done:
as §3, §4

Series [6] deals with GST-huntingtin (amino acids 384 to 467 of human huntingtin fused to GST), phosphorylated at S421 by Akt (UniProt P42858).
For series [7], the target named is GST-huntingtin (amino acids 384 to 467 of human huntingtin fused to GST), before phosphorylation (UniProt P42858).

With `C=CC[C@@H]1/C=C(\C)C[C@H](C)C[C@H](OC)[C@H]2O[C@@](O)(C(=O)C(=O)N3CCCC[C@H]3C(=O)O[C@H](/C(C)=C/[C@@H]3CC[C@@H](O)[C@H](OC)C3)[C@H](C)[C@@H](O)CC1=O)[C@H](C)C[C@@H]2OC` [FK506], the “time for which S421 phosphorylation remained sustained” value in series [1] was “at least 6 hours”.
For `CCC(C)(C)C(=O)C(=O)N1CCC[C@H]1C(=O)OCCCc1cccnc1` [GPI-1046], the “outcome of clinical trials” value with Parkinson's disease is listed as “have failed”.
On to `C[C@H](CCC(=O)O)C[C@H](C)C[C@H](C)C(=O)/C=C(\O)[C@H](C)C[C@H](C)C/C=C/[C@@H](C)[C@@H](O)[C@@H](C)[C@@H](O)C[C@@H]1CC[C@@](C)([C@H]2CC[C@@](C)([C@@H](C)O)O2)O1` [ionomycin], for which the “S421 phosphorylation after ionomycin” value in series [2] was “rapid dephosphorylation of huntingtin on S421”. Moreover, the figures for the “huntingtin S421 phosphorylation (mean fluorescence intensity)” value in series [3] and in series [3] (listed as Ionomycin) were “reduction of huntingtin phosphorylation at S421” and “decreased huntingtin S421 phosphorylation”, respectively.
As for “IGF-1: IGF-1, activator of the IGF-1/Akt pathway”, in series [4], the “mean velocity of BDNF-containing vesicles” value is recorded as “statistically significant increase in the velocity of BDNF vesicles; also recorded: significantly increases the mean velocity” and the “pausing time of BDNF-containing vesicles” value is given as “decreased the pausing time; also recorded: decreases their pausing time”. For the same compound, in series [5], the “pausing time of BDNF-containing vesicles” value is “decreasing pausing time; also recorded: decreases pausing time” and the “velocity of BDNF-containing vesicles” value is reported as “statistically increasing velocity; also recorded: increases velocity”.
Turning to “purified calcineurin (native protein isolated from bovine brain)”, in series [6], the “dephosphorylation of S421 (immunoblot with the anti-phospho-huntingtin-S421-763 antibody)” value was “calcineurin dephosphorylates S421 of huntingtin in vitro in a time and dose-dependent manner”.
As to recombinant Akt, the “phosphorylation of S421 (in vitro kinase assay, immunoblot)” value in series [7] is listed as “resulting in the phosphorylation of GST-huntingtin at S421”.
